Earlier results in article PMC6017357, “In Vitro Inhibitory Effects of Synthetic Cannabinoid EAM-2201 on Cytochrome P450 and UDP-Glucuronosyltransferase Enzyme Activities in Human Liver Microsomes” (Molecules : A Journal of Synthetic Chemistry and Natural …, 2018).
Where two headings read alike, the source gives them in different places.

Experiments:
[1] = tested on: human recombinant CYP2C19; conditions: mixed-type inhibition, human recombinant CYP2C19 enzymes; read-out: Ki, [S]-mephenytoin hydroxylation activity; cited from earlier work
[2] = tested on: human recombinant CYP3A4; conditions: competitive inhibition, human recombinant CYP3A4 enzymes; read-out: Ki, CYP3A4-catalyzed diltiazem N-demethylation; cited from earlier work
[3] = biological target: T1, UGT1A9 (Homo sapiens, UniProt O60656); design: method as in PMID 23230132; conditions: human liver and intestinal microsomes; cited from earlier work
T1 construct: ultrapooled human liver microsomes (0.2 mg/mL), 5 mM UDPGA; from tissue; host or cells: ultrapooled human liver microsomes
T1 sequence (O60656 26-530): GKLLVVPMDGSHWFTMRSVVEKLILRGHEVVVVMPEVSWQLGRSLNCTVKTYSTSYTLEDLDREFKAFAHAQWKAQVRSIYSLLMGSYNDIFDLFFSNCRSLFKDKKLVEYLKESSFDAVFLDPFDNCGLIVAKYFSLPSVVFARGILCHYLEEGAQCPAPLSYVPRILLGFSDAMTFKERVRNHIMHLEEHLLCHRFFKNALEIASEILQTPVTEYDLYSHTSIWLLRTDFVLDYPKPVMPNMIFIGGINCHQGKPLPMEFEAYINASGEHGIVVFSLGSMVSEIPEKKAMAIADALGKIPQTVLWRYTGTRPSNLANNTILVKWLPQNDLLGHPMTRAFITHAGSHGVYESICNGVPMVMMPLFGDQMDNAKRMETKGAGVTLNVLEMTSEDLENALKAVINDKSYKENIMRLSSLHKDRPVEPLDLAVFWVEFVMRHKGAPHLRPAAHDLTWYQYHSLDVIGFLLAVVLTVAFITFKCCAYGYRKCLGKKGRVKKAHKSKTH

[4] = biological target: T2, UGT2B7 (Homo sapiens, UniProt P16662); design: method as in PMID 23230132; conditions: human liver and intestinal microsomes; cited from earlier work
T2 construct: ultrapooled human liver microsomes (0.2 mg/mL), 5 mM UDPGA; from tissue; host or cells: ultrapooled human liver microsomes
T2 sequence (P16662 24-529): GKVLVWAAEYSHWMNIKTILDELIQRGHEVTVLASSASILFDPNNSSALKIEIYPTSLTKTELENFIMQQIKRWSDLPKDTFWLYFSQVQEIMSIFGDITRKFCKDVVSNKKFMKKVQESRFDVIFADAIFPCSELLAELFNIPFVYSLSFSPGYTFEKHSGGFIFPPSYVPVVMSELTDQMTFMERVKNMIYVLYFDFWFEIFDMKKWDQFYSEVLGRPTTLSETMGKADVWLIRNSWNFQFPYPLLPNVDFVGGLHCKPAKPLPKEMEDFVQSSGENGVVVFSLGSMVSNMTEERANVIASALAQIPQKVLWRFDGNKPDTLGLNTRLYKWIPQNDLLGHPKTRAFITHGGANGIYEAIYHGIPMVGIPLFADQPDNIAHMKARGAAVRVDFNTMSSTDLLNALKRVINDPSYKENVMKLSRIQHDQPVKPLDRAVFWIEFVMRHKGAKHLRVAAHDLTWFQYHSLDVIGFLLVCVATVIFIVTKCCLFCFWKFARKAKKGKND

[5] = biological target: T3, CYP2C8 (Homo sapiens, UniProt P10632); design: CYP2C8, CYP2C9, CYP2C19 and CYP3A4 activities in ultrapooled human liver microsomes were evaluated; from tissue; host or cells: ultrapooled human liver microsomes; method as in PMID 15304522; conditions: typical CYP2C8 inhibitors; cited from earlier work
T3 sequence (P10632 1-490): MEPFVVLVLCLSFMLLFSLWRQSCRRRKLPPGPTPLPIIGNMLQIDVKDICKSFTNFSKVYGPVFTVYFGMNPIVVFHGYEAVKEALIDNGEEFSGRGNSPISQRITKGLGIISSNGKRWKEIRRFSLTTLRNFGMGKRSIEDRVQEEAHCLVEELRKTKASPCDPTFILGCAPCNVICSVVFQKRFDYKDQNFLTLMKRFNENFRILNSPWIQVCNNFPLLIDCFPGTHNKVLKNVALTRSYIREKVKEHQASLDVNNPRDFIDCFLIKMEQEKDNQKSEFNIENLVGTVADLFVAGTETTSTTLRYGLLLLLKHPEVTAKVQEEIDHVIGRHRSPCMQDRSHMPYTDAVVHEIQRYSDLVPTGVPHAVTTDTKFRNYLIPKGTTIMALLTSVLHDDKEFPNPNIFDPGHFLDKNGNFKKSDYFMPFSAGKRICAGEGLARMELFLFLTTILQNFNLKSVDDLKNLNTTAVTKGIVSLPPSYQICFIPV

[6] = biological target: T4, CYP2C19 (Homo sapiens, UniProt P33261); conditions: typical mechanism-based CYP2C19 inhibitors; cited from earlier work
[7] = biological target: T5, CYP2C9 (Homo sapiens, UniProt P11712); conditions: read-out: Ki, CYP2C9-catalyzed diclofenac hydroxylation; mixed or competitive inhibition, human liver microsomes; cited from earlier work
[8] = biological target: T6, CYP3A4 (Homo sapiens, UniProt P08684); conditions: enzyme source not given; cited from earlier work
[9] = biological target: T5, CYP2C9; design: CYP2C8, CYP2C9, CYP2C19 and CYP3A4 activities in ultrapooled human liver microsomes were evaluated; from tissue; host or cells: ultrapooled human liver microsomes; method as in PMID 18838506; conditions: typical CYP2C9 mechanism-based inhibitors; cited from earlier work
[10] = biological target: T3, CYP2C8; conditions: cited from earlier work; for time-dependent inhibition of CYP2C8 activity: human liver microsomes
[11] = biological target: T4, CYP2C19; conditions: human liver microsomes; cited from earlier work
[12] = biological target: T6, CYP3A4; conditions: read-out: Ki, CYP3A4 midazolam 1′-hydroxylation; competitive (AM-2201) and noncompetitive (MAM-2201) inhibition, human liver microsomes; cited from earlier work
[13] = biological target: T7, UGT1A3 (Homo sapiens, UniProt P35503); conditions: human liver microsomes, cited from earlier work; for Ki: read-out: Ki, UGT1A3-catalyzed chenodeoxycholic acid 24-acyl glucuronidation
T7 sequence (P35503 29-534): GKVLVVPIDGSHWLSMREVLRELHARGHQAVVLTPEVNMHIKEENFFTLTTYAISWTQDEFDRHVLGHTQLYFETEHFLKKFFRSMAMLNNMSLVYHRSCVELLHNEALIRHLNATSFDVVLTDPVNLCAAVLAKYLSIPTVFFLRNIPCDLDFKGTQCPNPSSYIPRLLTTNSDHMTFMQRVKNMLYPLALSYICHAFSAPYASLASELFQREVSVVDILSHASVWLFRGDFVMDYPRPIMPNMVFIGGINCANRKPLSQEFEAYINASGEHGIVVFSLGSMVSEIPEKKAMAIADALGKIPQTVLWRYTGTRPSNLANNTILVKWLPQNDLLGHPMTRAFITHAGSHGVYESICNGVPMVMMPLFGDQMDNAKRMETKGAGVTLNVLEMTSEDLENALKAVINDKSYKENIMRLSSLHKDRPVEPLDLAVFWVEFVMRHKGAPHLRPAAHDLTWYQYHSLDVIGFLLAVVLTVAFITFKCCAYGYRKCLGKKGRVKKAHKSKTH

[14] = human liver microsomes; cited from earlier work
[15] = biological target: T6, CYP3A4; conditions: human liver microsomes, time-dependent inhibitors with reported clinical drug–drug interaction; cited from earlier work

T5 sequence (P11712 whole entry): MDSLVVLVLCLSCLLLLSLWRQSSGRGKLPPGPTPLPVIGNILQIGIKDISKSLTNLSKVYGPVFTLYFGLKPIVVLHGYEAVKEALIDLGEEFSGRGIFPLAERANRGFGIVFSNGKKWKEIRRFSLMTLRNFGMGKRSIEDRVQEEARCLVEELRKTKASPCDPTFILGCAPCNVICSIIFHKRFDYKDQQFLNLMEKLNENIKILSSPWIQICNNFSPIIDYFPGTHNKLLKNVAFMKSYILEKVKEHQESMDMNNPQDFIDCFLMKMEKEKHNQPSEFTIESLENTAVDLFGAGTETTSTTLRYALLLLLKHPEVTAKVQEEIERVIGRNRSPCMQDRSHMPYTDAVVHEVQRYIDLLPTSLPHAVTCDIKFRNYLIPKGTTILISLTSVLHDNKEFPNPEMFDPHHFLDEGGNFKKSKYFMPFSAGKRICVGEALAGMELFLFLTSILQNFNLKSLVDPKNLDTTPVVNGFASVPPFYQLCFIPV
T4 sequence (P33261 whole entry): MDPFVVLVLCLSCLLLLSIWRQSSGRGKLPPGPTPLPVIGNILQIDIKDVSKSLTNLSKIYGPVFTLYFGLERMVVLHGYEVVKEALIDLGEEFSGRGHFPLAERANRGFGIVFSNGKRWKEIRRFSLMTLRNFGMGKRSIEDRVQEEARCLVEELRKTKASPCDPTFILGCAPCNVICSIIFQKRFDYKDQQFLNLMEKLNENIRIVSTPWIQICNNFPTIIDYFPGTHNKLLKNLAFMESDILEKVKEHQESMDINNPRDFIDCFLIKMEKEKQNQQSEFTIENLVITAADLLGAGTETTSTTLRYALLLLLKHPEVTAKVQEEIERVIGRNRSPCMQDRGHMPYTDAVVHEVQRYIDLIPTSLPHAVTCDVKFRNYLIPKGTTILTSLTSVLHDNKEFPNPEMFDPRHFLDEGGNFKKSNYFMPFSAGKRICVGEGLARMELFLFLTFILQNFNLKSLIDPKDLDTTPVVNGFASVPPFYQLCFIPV
T6 sequence (P08684 whole entry): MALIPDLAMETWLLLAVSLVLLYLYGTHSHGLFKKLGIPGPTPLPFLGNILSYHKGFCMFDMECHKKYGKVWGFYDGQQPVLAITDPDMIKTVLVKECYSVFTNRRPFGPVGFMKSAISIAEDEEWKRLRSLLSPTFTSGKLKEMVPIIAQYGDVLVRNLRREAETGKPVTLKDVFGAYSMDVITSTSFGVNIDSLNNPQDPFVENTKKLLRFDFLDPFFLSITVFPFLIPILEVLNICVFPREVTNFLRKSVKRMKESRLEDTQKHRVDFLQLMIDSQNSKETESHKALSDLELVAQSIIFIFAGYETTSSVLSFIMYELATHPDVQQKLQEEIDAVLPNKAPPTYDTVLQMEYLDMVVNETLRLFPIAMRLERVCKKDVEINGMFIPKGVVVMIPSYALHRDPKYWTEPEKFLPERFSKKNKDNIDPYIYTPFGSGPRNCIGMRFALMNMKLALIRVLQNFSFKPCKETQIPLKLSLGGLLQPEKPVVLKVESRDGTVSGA

C=C(C)[C@@H]1CCC(C)=C[C@H]1c1c(O)cc(CCCCC)cc1O [cannabidiol]
Ki [1]: 0.793 µM
Ki [2]: 1 µM
inhibition of UGT1A9 activity [3]: inhibited
inhibition of UGT2B7 activity [4]: inhibited

CCCCc1oc2ccccc2c1C(=O)c1cc(I)c(OCCN(CC)CC)c(I)c1 [amiodarone]
inactivation efficiency (kinact/Ki), CYP2C8 [5]: 9.5 M⁻¹ s⁻¹

COC(=O)[C@H](c1ccccc1Cl)N1CCc2sccc2C1 [clopidogrel]
inactivation efficiency (kinact/Ki), CYP2C19 [6]: 65 M⁻¹ s⁻¹

CCCCCc1cc(O)c2c(c1)OC(C)(C)[C@@H]1CCC(C)=C[C@@H]21 [THC, ∆9-tetrahydrocannabinol]
Ki [1]: 1.93 µM
Ki [7]: 1.31 µM
inhibition of CYP3A4 activity [8]: did not inhibit

O=C(O)COc1ccc(C(=O)c2cccs2)c(Cl)c1Cl [tienilic acid]
inactivation efficiency (kinact/Ki), CYP2C9 [9]: 142 M⁻¹ s⁻¹

O=C(c1cccc2ccccc12)c1cn(CCCCCF)c2ccccc12 [AM-2201]
inactivation efficiency (kinact/Ki), CYP2C8 [10]: 430 M⁻¹ s⁻¹
time-dependent inhibition of CYP2C8 activity [10]: exhibited time-dependent inhibition
Ki [7]: 3.9 µM
inhibition of CYP2C19-catalyzed [S]-mephenytoin hydroxylation [11]: did not inhibit
Ki [12]: 4 µM
Ki [13]: 4.3 µM
number of metabolites [14]: 19 metabolites

CC(C(=O)O)c1ccc(C(=O)c2cccs2)cc1 (racemic) [(±)-suprofen]
inactivation efficiency (kinact/Ki), CYP2C9 [9]: 18.3 M⁻¹ s⁻¹

Cc1ccc(C(=O)c2cn(CCCCCF)c3ccccc23)c2ccccc12 [MAM-2201, (1-(5-fluoropentyl)-1H-indol-3-yl)(4-methyl-1-naphthalenyl)-methanone]
inactivation efficiency (kinact/Ki), CYP2C8 [10]: 1230 M⁻¹ s⁻¹
time-dependent inhibition of CYP2C8 activity [10]: exhibited time-dependent inhibition
Ki [7]: 5.6 µM
inhibition of CYP2C19-catalyzed [S]-mephenytoin hydroxylation [11]: did not inhibit
Ki [12]: 5.4 µM
Ki [13]: 5 µM
number of metabolites [14]: 19 metabolites

NNCCc1ccccc1 [phenelzine]
inactivation efficiency (kinact/Ki), CYP2C8 [5]: 52.2 M⁻¹ s⁻¹

CC[C@H]1OC(=O)[C@H](C)[C@@H](O[C@H]2C[C@@](C)(OC)[C@@H](O)[C@H](C)O2)[C@H](C)[C@@H](O[C@@H]2O[C@H](C)C[C@H](N(C)C)[C@H]2O)[C@](C)(OC)C[C@@H](C)C(=O)[C@H](C)[C@@H](O)[C@]1(C)O [clarithromycin]
inactivation efficiency (kinact/Ki), CYP3A4 [15]: 46.7 M⁻¹ s⁻¹

CCCCCc1cc(O)c2c(c1)OC(C)(C)c1ccc(C)cc1-2 [cannabinol]
inhibition of UGT1A9 activity [3]: inhibited
inhibition of UGT2B7 activity [4]: inhibited
inhibition of CYP3A4 activity [8]: did not inhibit

CC1(C)[C@@H](O)CC[C@]2(C)[C@H]3C(=O)C=C4[C@@H]5C[C@@](C)(C(=O)O)CC[C@]5(C)CC[C@@]4(C)[C@]3(C)CC[C@@H]12 [glycyrrhetinic acid]
IC50 ([13]; read-out: IC50, UGT1A3-catalyzed chenodeoxycholic acid 24-acyl glucuronidation, selective UGT1A3 inhibitor): 4.3 µM
